“Also recorded” adds a separate entry of the source. Counter-ions that a name gives are not always drawn.
Columns and labels:
[1] = system: Zebrafish (Danio rerio); assay: Social interaction test in zebrafish exposed to MK-801; format: in vivo; conditions: for Social Interaction Test: Time immobile: 20 min drug pre-exposure, then 20 min MK-801 5 μM or water; for total distance traveled in the social interaction test / time spent in the interaction zone (social interaction), effect of the substance itself: main effect; for total distance traveled in the social interaction test: FIG. 3; for time spent in the interaction zone (social interaction), effect of the substance itself: two-way ANOVA, Bonferroni post hoc; for number of crossings in the social interaction test: main or interaction effect with MK-801, FIG. 4; for pre-exposure concentration at which MK-801 increased the number of crossings (Bonferroni post hoc): social interaction test, FIG. 4
Protocol: (§1) Here, the ability of alstonine salts to reverse schizophrenia-like symptoms produced by MK-801 in zebrafish was evaluated. The atypical antipsychotic olanzapine was used as a comparison.
(§2) Experiments were performed using male and female (50:50 ratio) short-fin wild-type zebrafish (4-month-old, 300-500 mg). Adult animals were obtained from a local commercial supplier (Delphis, RS, Brazil). The animals were maintained at Instituto de Ciências Básicas de Saúde in a light/dark cycle of 14/10 h with lights on at 7:00 a.m. for at least two weeks before tests. Fish were kept in 40-L (30×46×33 cm) unenriched glass tanks with non-chlorinated water at a maximum density of five animals per liter. Tank water satisfied the controlled conditions required for zebrafish (26±2° C.; pH 7.0±0.3; dissolved oxygen at 7.0±0.4 mg/L; total ammonia at <0.01 mg/L; total hardness at 5.8 mg/L; alkalinity at 22 mg/L CaCO3; conductivity of 1,500-1,600 μS/cm) and was constantly filtered by mechanical, biological, and chemical filtration systems. Food was provided twice a day as commercial flake food (Poytara®, SP, Brazil) plus brine shrimp (Artemia salina). The sex of the animals was confirmed after euthanasia by dissecting and analyzing the gonads. For all experiments, no sex effects were observed, so data was pooled together. Animals were euthanized by hypothermic shock according to the AVMA Guidelines for the Euthanasia of Animals (Leary and Johnson, 2020).
(§3) Olanzapine and MK-801 (dizocilpine) were purchased from Sigma-Aldrich (St. Louis, MO, USA). Alstonine hydrochloride and alstonine hydrobromide were prepared as described herein. MK-801 and either olanzapine or alstonine salt were dissolved in distilled water; alstonine salt stock solutions were sonicated in an ultrasonic bath. MK-801 solutions were freshly prepared, while alstonine salt stock solutions were kept refrigerated for up to five days. Exposure solutions were renovated halfway through the experiment, with a maximum of four fish exposed to the same solution.
(§4) Different sets of animals were used for each experiment, totaling 240 zebrafish in the study (plus 80 zebrafish serving as stimulus animals). Animals were individually exposed to water, olanzapine, or alstonine salt solutions at 2.5, 5, or 10 mg/L in 500-mL beakers containing 200-mL solution for 20 min. These concentrations were extrapolated from mice studies. Fish were then transferred to another beaker containing either water or MK-801 at 5 μM and remained there for another 20 minutes.
The protocol for the social interaction test in zebrafish followed the method described by Benvenutti et al. (2021) Journal of Neuroscience Research 00: 1-16. After exposure, animals were placed for 7 min in a tank (30×10×15 cm) flanked by two identical tanks (15×10×13 cm) either empty (neutral stimulus) or containing 10 unknown zebrafish (social stimulus). All three tanks were filled with water in standard conditions at a level of 10 cm. The position of the social stimulus (right or left) was counterbalanced throughout the tests. The water in the test tanks was changed between every animal. To assess social behavior, the test apparatus was virtually divided into three vertical zones (interaction, middle, and neutral). Animals were habituated to the apparatus for 2 min and then analyzed for the last 5 min. Videos were recorded from the front view and time spent in the interaction zone was quantified as a proxy for social interaction. Additionally, total distance traveled, number of crossings between the vertical zones of the tank and immobility time were quantified as secondary locomotor parameters. All outcomes were automatically scored using ANY-Maze software (Stoelting Co., Wood Dale, IL, USA).
GraphPad Prism 8 (version 8.4.3) for macOS was used to run the statistical analyses and plot the results. No animals were excluded, except for two data points in the open tank test due to a failure in video acquisition. […]

[2] = system: Zebrafish (Danio rerio); assay: Open tank test in zebrafish exposed to MK-801; format: in vivo; conditions: for total distance in the open tank test: FIG. 7; for absolute turn angle in the open tank test: FIG. 8; for number of clockwise rotations in the open tank test: FIG. 9; for time spent immobile in the open tank test: for pretreatments: effect on the MK-801-induced increase, FIG. 10; for Open Tank Test: Absolute turn angle / Open Tank Test: Time immobile / Open Tank Test: Clockwise rotations / Open Tank Test: Total distance: immediately after social interaction test, 10 min; for Open Tank Test: Clockwise rotations / Open Tank Test: Total distance: bracket = kind of effect and concentration (mg/L)
Protocol: as §1, §2, §3, §4
The protocol for the open tank test followed the method described by Benvenutti et al. (2021) Journal of Neuroscience Research 00: 1-16. Immediately after the social interaction test, animals were placed in the center of the open tank arena and recorded for 10 min. The apparatus consisted of a white circular arena (24 cm in diameter and 8 cm in height, 2 cm water level). The apparatus format and the acquisition of videos from the top view allows the evaluation of locomotor parameters related to stereotypic behavior (circular movements and absolute turn angle). The water was changed between every animal. The following outcomes were automatically scored using ANY-Maze software (Stoelting Co., Wood Dale, IL, USA): total distance traveled, absolute turn angle, number of clockwise rotations, and immobility time.
GraphPad Prism 8 (version 8.4.3) for macOS was used to run the statistical analyses and plot the results. No animals were excluded, except for two data points in the open tank test due to a failure in video acquisition. Data were analyzed by two-way ANOVA, with alstonine salt or olanzapine pretreatment (Drug_1) and MK-801 treatment (Drug_2) as the main factors. Bonferroni post hoc test was applied as appropriate. The significant level was set at p<0.05. Data were expressed as mean standard deviation.

[3] = system: mice; conditions: cited from earlier work
[4] = system: dopamine (DA) uptake; conditions: mouse striatal synaptosomes (Linck et al. 2015); cited from earlier work
[5] = system: D1, D2, and 5-HT2A receptors; conditions: cortex membranes; preliminary binding studies (Costa-Campos et al., 1998); cited from earlier work
[6] = system: rodents; conditions: acute administration; literature data; cited from earlier work

Row | SMILES | Social Interaction Test: Time immobile [1] | total distance traveled in the social interaction test [1] | number of crossings in the social interaction test [1] | total distance in the open tank test [2] | absolute turn angle in the open tank test [2] | number of clockwise rotations in the open tank test [2] | time spent immobile in the open tank test [2] | Open Tank Test: Absolute turn angle [2] | Open Tank Test: Time immobile [2] | Open Tank Test: Clockwise rotations [2] | Open Tank Test: Total distance [2] | pre-exposure concentration at which MK-801 increased the number of crossings (Bonferroni post hoc) [1] | also measured
1 | C[C@]12N[C@H](Cc3ccccc31)c1ccccc12 [MK-801, dizocilpine, reference compound] | = | increased the total distance traveled relative to controls | had no effect on the number of crossings | decreased the total distance relative to controls | decreased the absolute turn angle relative to controls | decreased the number of clockwise rotations relative to controls | increased the time spent immobile | ↓ | ↑ | ↓ | ↓ |  | Social Interaction Test: Crossings ([1]; Ctrl vs. MK within pretreatment level, bracket = concentration (mg/L)): =; time spent immobile in the social interaction test ([1]; FIG. 5): tended to decrease the time spent immobile; time spent in the interaction zone (social interaction), effect of the substance itself ([1]; FIG. 2): decreased social preference
2 | Cc1cc2c(s1)Nc1ccccc1N=C2N1CCN(C)CC1 [olanzapine, reference compound] | N.E.^1 |  |  |  |  |  |  | N.E.^1 |  |  |  |  | 
3 | COC(=O)C1=CO[C@@H](C)[C@H]2C[n+]3ccc4c([nH]c5ccccc54)c3C[C@H]12.[Br-] [alstonine hydrobromide] |  | had no such effect | significant interaction | did not have an effect | no main effects for Drug_1 or interaction effects were observed | did not have a main effect or an interaction effect | did not have an effect | N.E.^1 | N.E.^1 | N.E.^1 | N.E.^1 | 10 mg/L | time spent immobile in the social interaction test ([1]; FIG. 5, hydrobromide): significant interaction; time spent immobile in the social interaction test ([1]; FIG. 5, listed as alstonine bromide, hydrobromide): reduced the effects of MK-801 at the highest concentrations tested; time spent in the interaction zone (social interaction), effect of the substance itself ([1]; FIG. 2, listed as alstonine bromide, hydrobromide): none of the concentrations decreased social isolation; also recorded: did not; prevention of the MK-801-induced decrease of social interaction time ([1]; pretreatment 20 min before MK-801 5 μM, FIG. 2): did not prevent the effects of MK-801
4 | COC(=O)C1=CO[C@@H](C)[C@@H]2Cn3ccc4c5ccccc5nc-4c3C[C@H]12 [alstonine hydrochloride] | N.E.^1 | had no such effect | significant interaction | did not have an effect | no main effects for Drug_1 or interaction effects were observed | did not have a main effect or an interaction effect | did not have an effect | N.E.^1 | N.E.^1 | N.E.^1 | N.E.^1 | 5 mg/L | time spent in the interaction zone (social interaction), effect of the substance itself ([1]; FIG. 2, hydrochloride): animals exposed to 5 and 10 mg/L alstonine hydrochloride spent less time in the interaction zone as compared to controls; also recorded: decreased the interaction time
5 | COC(=O)C1=CO[C@@H](C)[C@@H]2Cn3ccc4c5ccccc5nc-4c3C[C@H]12 [alstonine] |  |  |  |  |  |  |  |  |  |  |  |  | antipsychotic profile in mice models ([3]; 0.5-1.0 mg/kg ip): antipsychotic properties; time to significant effects after intraperitoneal administration ([3]; mice, ip): ≤ 30 min; effect on DA uptake [4]: increasing DA uptake; effect on [3H]SCH23390 or [3H]Spiperone binding [5]: does not affect
6 | CCN1CCCC1CNC(=O)c1cc(S(N)(=O)=O)ccc1OC (stereo not shown) [Sulpiride] |  |  |  |  |  |  |  |  |  |  |  |  | prevention of social interaction deficits caused by MK-801 [6]: acutely prevents the deficits caused by MK-801

— US20240208988A1, “Alstonine Derivatives and Salts Thereof” (priority 2021, published 2024)
